Laboratory results reported in patent US20100196516A1, “TREATMENT OF INFECTIONS BY CARBON MONOXIDE” (priority 2007, published 2010).
Entries after “also recorded” stand apart in the source; their conditions may differ.

What was measured:
bacteria = experiment: Bactericidal effect / bacterial growth, bacterium not given; assay type: cell-based; conditions: for bactericidal properties or altered growth kinetics of decomposition products: same concentration as compound of Formula V (50 μM), data not shown
Experimental: (§1) CO gas and CORM treatment: Overnight cultures of E. coli or S. aureus grown in LB or tryptic soy broth, respectively, were used to inoculate fresh MS medium (E. coli) or LB medium (S. aureus), and the cultures on fresh medium were incubated at 37° C. under the required aeration conditions to an optical density at […] of 0.3. At this point, cells were exposed to a flux of CO gas for 15 min or to CORMs. Untreated cells were bubbled with nitrogen gas or treated with dimethyl sulfoxide, water, or methanol, depending on the solvent used to dissolve the CORM.
(§2) Viability assays: The number of viable cells was evaluated by measuring the CFU per milliliter upon plating serial dilutions of the various cultures onto agar plates. The percent survival was calculated as the number of colonies originated by treated cultures divided by the number of colonies formed upon the plating of untreated cultures. Sensitivity tests were conducted by plating 5 μl serial dilutions of cultures grown for 4 h and treated with CORMs, with or without the CO scavenger hemoglobin (Hb [bovine form used at 20 μM; Sigma]), onto agar. The experiments were performed with a minimum of three independent cultures, and the results are presented in the figures as averaged values with error bars representing one standard deviation.

E. coli K-12 ATCC 23716 = assay type: cell-based, Escherichia coli; conditions: for effect on viability / growth of E. coli: CO gas flux 15 min, CORM-2 250 μM, CORM-3 400 μM, Formula IV 500 μM aerobic or 200 μM anaerobic, Formula V 50 μM, MS medium; for bactericidal effect on E. coli in the presence of Hb: with CO scavenger Hb, bovine, 20 μM
Experimental: (§3) Bacterial strains and growth conditions: E. coli K-12 ATCC 23716 and S. aureus NCTC8325 were grown in minimal salts (MS) medium (1.3% [wt/vol] Na2HPO4, 0.3% [wt/vol] KH2PO4, 0.05% [wt/vol] NaCl, and 0.1% [wt/vol] NH4Cl supplemented with 20 mM glucose, 2 mM MgSO4, 100 μM CaCl2, and 0.25% [wt/vol] Casamino Acids) and in Luria-Bertani (LB) medium (1% [wt/vol] tryptone, 0.5% [wt/vol] yeast extract, and 1% [wt/vol] NaCl), respectively, under different oxygen supply conditions. Aerobic experiments were undertaken with flasks filled to one-fifth of their volume, microaerobic tests were conducted with closed flasks filled to one-half of their volume, and anaerobic conditions were produced in rubber-sealed flasks that, once filled with medium and closed, were extensively fluxed with nitrogen gas.
as §1
as §2, with “agar.” for “agar. The experiments were performed with a minimum of three independent cultures, and the results are presented in the figures as averaged values with error bars representing one standard deviation.”

S. aureus NCTC8325 = assay type: cell-based, Staphylococcus aureus; conditions: for effect on viability / growth of S. aureus: CO gas flux 15 min, CORM-2 250 μM, CORM-3 500 or 400 nM (so in the source), Formula IV 600 μM, Formula V 50 μM, LB medium; for bactericidal effect on S. aureus in the presence of Hb: with CO scavenger Hb, bovine, 20 μM
Experimental: as §3, §1
as §2, with “agar.” for “agar. The experiments were performed with a minimum of three independent cultures, and the results are presented in the figures as averaged values with error bars representing one standard deviation.”

S. aureus = experiment: MIC and MBC by tube dilution test; assay type: cell-based, Staphylococcus aureus; conditions: minimal medium, at least 18 h at 37° C.
Experimental: (§4) The investigation of MICs and minimal bactericidal concentrations (MBCs) was carried out by the tube dilution test. Briefly, 2.5 ml of minimal medium was inoculated with an overnight culture of E. coli or S. aureus to give an optical density at 600 nm of 0.005 to 0.01. Different concentrations of CORM-2, between 150 μM and 2 mM, were added to the diluted suspensions in the wells of 24-well plates, and the plates were incubated for at least 18 h at 37° C. and 90 rpm. The concentration of CORM-2 in the first well in the series with no sign of visible growth was reported as the MIC. […] After incubation at 37° C. for 24 h, the lowest concentration of CORM-2 in a culture with no growth was assumed to be the MBC.

[1] = CO release kinetics: CO released into medium by CORMs (gas chromatography); assay type: physicochemical; conditions: media utilized (MS, LB), time scale of the experiment
Experimental: CO release kinetics: CORMs were mixed with MS or LB medium in sealed vessels, and the vessels were incubated at room temperature under constant stirring and protected from light. Gas samples were collected after 30 min and 4 h and analyzed using a gas chromatograph (Thermo Finnigan Trace) equipped with a CTRI column (Alltech) and a thermal conductivity detector. The CO released was quantified using a calibration curve recorded prior to the reaction course.

hemoglobin (Hb) = target: T1, hemoglobin (Hb) (Bos taurus, UniProt P01966+P02070); experiment: Transfer of CO from CORMs to Hb (carbonylation, shift of Soret band); assay type: biochemical, bovine
T1 construct: purchased Sigma

E. coli = experiment: MIC and MBC by tube dilution test; assay type: cell-based, Escherichia coli; conditions: minimal medium, at least 18 h at 37° C.
Experimental: as §4

H. pylori 26695 = experiment: Diffusion disk assay, inhibition halos; assay type: cell-based, Helicobacter pylori; conditions: paper disks, 15 μl; 200 mM CORM-2; 150 mM Formula II and Formula III; 24-36 hours

T1 sequence (P01966 2-142): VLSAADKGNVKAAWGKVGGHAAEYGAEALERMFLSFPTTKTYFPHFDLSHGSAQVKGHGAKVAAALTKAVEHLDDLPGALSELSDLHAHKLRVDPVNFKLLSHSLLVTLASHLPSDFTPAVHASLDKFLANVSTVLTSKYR
T1 sequence (P02070 whole entry): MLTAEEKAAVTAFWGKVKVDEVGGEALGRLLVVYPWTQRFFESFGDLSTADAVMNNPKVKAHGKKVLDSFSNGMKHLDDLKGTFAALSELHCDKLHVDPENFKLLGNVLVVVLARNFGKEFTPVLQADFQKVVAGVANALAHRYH

[C-]#[O+] [CO gas, Carbon monoxide]
concentration of CO needed to become effective as a bactericide (bacteria; CO administered as gas): ca. 1 mM | effect on viability / growth of E. coli (E. coli K-12 ATCC 23716): significant growth impairment | effect on viability / growth of S. aureus (S. aureus NCTC8325): significant growth impairment

[C-]#[O+].[C-]#[O+].[C-]#[O+].[C-]#[O+].[C-]#[O+].[C-]#[O+].[Cl][Ru][Cl].[Cl][Ru][Cl] [CORM-2, tricarbonyldichlororuthenium(II) dimer, reference compound]
MBC/MIC ratio (S. aureus): 1.0 | release of CO gas upon dissolution in the medium (in words) [1]: neither CORM-2 nor CORM-3 releases CO gas | time for carbonylation of Hb (in words) (hemoglobin (Hb)): within the mixing time | effect on viability / growth of E. coli (E. coli K-12 ATCC 23716): significantly diminished | MBC/MIC ratio (E. coli): 1.5 | effect on viability / growth of S. aureus (S. aureus NCTC8325): significantly diminished | bactericidal effect on H. pylori (inhibition halos) (H. pylori 26695): bactericidal effect

NCC(=O)O.[CH+]=O.[CH+]=O.[CH+]=O.[Cl][Ru] [CORM-3, tricarbonylchloro(glycinato)ruthenium(II), reference compound]
release of CO gas upon dissolution in the medium (in words) [1]: neither CORM-2 nor CORM-3 releases CO gas | time for carbonylation of Hb (in words) (hemoglobin (Hb)): within the mixing time | effect on viability / growth of E. coli (E. coli K-12 ATCC 23716): strongly decreased the viability | effect on viability / growth of S. aureus (S. aureus NCTC8325): strongly decreased the viability

O=[C][Mo]12([C]=O)([C]=O)[O]C(=O)CN(CCN(CC(=O)O)CC(=O)[O]1)CCN(CC(=O)O)CC(=O)[O]2 [compound of Formula III]
bactericidal effect on H. pylori (inhibition halos) (H. pylori 26695): bactericidal effect

O=[C]=[Mn]([Br])(=[C]=O)(=[C]=O)(=[C]=O)=[C]=O [compound of Formula IV, bromo(pentacarbonyl)manganese]
release of CO gas upon dissolution in the medium (in words) [1]: rather small amounts | effect on viability / growth of E. coli (E. coli K-12 ATCC 23716): strongly reducing the viability; also recorded: more effective in reducing the viability of E. coli cells grown anaerobically | bactericidal effect on E. coli in the presence of Hb (E. coli K-12 ATCC 23716): completely eliminated the harmful action | effect on viability / growth of S. aureus (S. aureus NCTC8325): strongly reducing the viability | bactericidal effect on S. aureus in the presence of Hb (S. aureus NCTC8325): completely eliminated the harmful action

CC[N+](CC)(CC)CC.O=[C]=[Mo-]([Br])(=[C]=O)(=[C]=O)(=[C]=O)=[C]=O [compound of Formula V, tetraethylammonium molybdenum pentacarbonyl bromide]
release of CO gas upon dissolution in the medium (in words) [1]: rather small amounts | effect on viability / growth of E. coli (E. coli K-12 ATCC 23716): strongly reducing the viability | bactericidal effect on E. coli in the presence of Hb (E. coli K-12 ATCC 23716): completely eliminated the harmful action | effect on viability / growth of S. aureus (S. aureus NCTC8325): strongly reducing the viability | bactericidal effect on S. aureus in the presence of Hb (S. aureus NCTC8325): completely eliminated the harmful action

[Na+].[Na+].[O]=[Mo](=[O])([O-])[O-] [sodium molybdate]
bactericidal properties or altered growth kinetics of decomposition products (bacteria): None of these compounds had bactericidal properties or altered growth kinetics

CC[N+](CC)(CC)CC.[Br-] [tetraethyl ammonium bromide]
bactericidal properties or altered growth kinetics of decomposition products (bacteria): None of these compounds had bactericidal properties or altered growth kinetics
